Source: PMC8542630 (Cell chemical biology, 2021)

Tests used:
Assay in all cases: Microscale thermophoresis
[1] = molecular target: GFP-Sc-Dyn AAA4 E/Q (E2819Q) (Saccharomyces cerevisiae, UniProt P36022, E2819Q); format: binding, S. cerevisiae
[2] = molecular target: GFP-Sc-Dyn V2391S/M2732S (AAA3_V-S/AAA4_M-S) (Saccharomyces cerevisiae, UniProt P36022, M2732S/V2391S); format: binding
Sc-Dyn-lyso = molecular target: T1, Sc-Dyn-lyso (Saccharomyces cerevisiae, UniProt P36022); format: binding, S. cerevisiae
T1 sequence (P36022 1758-2992 limits assumed): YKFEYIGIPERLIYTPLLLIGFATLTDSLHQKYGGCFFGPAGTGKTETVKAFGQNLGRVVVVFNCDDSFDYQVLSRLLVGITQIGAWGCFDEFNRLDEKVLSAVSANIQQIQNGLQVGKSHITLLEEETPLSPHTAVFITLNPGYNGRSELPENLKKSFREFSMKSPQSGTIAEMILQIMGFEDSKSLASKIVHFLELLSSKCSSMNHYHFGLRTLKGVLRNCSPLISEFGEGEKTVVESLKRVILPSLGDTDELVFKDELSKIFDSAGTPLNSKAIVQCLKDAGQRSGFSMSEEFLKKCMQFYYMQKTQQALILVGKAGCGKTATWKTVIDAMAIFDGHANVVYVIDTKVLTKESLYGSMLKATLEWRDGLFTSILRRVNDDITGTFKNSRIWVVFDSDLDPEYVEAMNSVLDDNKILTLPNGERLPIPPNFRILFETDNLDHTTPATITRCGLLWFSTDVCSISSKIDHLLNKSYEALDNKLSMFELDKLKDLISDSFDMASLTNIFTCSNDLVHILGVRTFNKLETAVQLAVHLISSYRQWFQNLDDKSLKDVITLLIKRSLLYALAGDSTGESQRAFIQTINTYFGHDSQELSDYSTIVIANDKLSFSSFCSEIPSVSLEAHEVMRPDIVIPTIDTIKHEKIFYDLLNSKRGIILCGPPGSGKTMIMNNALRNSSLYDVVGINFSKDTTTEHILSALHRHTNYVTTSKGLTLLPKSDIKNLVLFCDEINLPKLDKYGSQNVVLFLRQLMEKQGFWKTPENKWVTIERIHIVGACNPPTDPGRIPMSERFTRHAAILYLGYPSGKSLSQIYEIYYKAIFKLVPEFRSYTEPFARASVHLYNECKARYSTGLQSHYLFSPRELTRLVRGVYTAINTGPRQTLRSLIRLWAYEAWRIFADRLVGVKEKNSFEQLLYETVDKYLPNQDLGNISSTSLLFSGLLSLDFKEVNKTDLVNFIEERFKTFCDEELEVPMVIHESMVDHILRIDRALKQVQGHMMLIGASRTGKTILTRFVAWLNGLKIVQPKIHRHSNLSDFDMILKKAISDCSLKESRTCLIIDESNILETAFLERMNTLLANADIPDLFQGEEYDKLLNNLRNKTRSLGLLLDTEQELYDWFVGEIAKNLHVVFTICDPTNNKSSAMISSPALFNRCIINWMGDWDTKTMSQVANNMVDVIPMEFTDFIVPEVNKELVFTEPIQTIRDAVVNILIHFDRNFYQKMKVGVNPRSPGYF
T1 sequence (P36022 3301-4092 limits assumed): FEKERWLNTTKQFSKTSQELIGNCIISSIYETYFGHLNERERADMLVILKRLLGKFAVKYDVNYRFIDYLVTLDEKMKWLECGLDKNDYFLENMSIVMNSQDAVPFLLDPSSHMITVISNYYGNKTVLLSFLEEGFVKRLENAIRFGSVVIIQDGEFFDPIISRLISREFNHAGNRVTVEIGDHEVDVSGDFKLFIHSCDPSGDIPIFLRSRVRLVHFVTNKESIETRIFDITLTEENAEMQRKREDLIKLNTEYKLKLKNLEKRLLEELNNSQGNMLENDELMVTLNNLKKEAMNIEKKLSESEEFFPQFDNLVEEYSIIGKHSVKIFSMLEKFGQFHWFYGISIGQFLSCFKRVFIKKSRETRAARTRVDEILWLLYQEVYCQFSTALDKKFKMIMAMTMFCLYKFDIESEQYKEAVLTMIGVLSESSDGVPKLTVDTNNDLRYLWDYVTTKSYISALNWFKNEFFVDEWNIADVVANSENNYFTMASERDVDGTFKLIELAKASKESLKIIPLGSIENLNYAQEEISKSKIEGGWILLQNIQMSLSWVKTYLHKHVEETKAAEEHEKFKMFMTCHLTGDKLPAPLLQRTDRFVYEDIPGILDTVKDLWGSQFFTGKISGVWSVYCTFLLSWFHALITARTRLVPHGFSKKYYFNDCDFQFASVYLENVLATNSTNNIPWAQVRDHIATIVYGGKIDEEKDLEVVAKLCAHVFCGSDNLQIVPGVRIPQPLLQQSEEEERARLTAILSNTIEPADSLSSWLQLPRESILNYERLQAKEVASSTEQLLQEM

GFP-Sc-Dyn = GFP-Sc-Dyn (Saccharomyces cerevisiae, UniProt P36022); format: binding, S. cerevisiae; details: for FNorm, GFP-Sc-Dyn (MST) / ΔFNorm, GFP-Sc-Dyn (MST): mean ± SD; for FNorm, GFP-Sc-Dyn (MST): n=3; for ΔFNorm, GFP-Sc-Dyn (MST): absence of AMPPNP, n=5
GFP-Sc-Dyn, sequence (P36022 1219-4092): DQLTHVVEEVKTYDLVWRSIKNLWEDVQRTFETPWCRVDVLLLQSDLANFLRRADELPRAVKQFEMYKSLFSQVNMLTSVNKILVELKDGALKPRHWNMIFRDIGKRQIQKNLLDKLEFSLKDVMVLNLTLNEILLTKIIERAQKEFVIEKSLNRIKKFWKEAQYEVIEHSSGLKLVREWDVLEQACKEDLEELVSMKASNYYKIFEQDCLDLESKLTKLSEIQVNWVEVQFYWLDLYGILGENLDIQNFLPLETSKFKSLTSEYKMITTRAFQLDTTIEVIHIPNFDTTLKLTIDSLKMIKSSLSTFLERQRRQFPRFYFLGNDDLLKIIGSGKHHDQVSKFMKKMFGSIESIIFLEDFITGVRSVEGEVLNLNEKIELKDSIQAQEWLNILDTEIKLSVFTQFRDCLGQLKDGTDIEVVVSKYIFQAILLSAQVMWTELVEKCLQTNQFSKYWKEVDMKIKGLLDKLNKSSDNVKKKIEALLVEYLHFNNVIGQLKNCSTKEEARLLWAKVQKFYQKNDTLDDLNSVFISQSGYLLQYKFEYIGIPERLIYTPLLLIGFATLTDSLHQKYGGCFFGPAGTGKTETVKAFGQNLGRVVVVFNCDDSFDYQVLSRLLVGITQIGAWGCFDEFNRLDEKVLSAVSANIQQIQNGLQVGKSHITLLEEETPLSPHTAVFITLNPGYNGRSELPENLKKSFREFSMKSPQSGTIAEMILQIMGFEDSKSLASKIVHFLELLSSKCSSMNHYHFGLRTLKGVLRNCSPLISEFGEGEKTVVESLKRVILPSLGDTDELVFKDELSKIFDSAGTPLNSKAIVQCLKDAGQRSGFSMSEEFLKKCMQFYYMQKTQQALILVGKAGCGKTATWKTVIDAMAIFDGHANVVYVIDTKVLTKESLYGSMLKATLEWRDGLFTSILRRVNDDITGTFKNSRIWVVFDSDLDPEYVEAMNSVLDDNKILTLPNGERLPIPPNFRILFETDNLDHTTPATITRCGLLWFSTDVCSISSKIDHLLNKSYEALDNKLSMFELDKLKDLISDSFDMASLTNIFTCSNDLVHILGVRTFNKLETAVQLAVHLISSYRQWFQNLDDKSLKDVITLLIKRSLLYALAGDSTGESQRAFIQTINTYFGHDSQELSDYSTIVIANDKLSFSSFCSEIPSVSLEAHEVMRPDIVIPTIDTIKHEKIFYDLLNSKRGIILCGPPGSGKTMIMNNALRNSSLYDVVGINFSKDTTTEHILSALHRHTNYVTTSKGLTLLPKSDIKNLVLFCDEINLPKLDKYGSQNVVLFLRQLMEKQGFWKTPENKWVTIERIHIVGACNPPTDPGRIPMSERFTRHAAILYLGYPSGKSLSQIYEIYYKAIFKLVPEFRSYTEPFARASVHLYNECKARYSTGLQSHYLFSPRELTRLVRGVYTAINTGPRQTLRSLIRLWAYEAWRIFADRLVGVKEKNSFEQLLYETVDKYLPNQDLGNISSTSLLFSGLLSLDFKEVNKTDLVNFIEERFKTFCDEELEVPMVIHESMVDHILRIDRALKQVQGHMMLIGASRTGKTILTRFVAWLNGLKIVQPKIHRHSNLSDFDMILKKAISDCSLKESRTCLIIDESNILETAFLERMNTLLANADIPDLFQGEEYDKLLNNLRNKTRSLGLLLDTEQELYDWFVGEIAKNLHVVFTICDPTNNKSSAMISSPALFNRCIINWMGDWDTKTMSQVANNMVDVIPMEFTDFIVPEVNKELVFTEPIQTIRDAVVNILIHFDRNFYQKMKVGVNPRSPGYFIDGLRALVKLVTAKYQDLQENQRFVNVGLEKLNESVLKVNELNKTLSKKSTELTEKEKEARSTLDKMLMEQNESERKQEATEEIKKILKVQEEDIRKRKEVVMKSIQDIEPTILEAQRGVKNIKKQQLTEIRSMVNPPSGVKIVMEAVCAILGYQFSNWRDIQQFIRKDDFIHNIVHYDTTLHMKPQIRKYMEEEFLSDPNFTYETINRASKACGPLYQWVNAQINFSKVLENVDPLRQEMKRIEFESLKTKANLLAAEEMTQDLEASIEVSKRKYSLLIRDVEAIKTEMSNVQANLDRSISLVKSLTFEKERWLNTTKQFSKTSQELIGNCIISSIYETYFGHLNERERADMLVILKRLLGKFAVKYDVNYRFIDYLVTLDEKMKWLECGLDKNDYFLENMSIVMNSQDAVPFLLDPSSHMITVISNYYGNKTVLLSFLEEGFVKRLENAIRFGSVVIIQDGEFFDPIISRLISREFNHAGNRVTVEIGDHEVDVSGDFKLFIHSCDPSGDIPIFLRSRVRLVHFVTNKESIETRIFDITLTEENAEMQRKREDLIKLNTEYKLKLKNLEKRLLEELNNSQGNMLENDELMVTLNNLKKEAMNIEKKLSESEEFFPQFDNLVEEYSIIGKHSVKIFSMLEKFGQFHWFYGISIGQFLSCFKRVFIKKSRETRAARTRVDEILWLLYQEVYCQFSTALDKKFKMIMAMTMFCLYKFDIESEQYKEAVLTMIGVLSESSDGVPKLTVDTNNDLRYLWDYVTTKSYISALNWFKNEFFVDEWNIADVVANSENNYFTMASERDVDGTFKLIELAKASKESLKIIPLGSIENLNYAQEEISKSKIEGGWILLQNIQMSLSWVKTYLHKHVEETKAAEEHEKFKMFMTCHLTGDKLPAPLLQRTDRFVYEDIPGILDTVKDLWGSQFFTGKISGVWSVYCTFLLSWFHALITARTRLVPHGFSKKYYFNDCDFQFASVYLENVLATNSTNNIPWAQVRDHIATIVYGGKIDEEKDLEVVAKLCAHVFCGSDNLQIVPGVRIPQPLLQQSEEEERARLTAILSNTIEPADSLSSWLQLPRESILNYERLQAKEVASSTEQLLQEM

GFP-Sc-Dyn AAA4 E/Q (E2819Q), sequence (P36022 1219-4092 E2819Q): as the sequence (P36022 1219-4092) above, with E1601Q counted along it
GFP-Sc-Dyn V2391S/M2732S (AAA3_V-S/AAA4_M-S), sequence (P36022 1219-4092 V2391S/M2732S): as the sequence (P36022 1219-4092) above, with V1173S, M1514S counted along it

What does the source list for N#Cc1c(C2(c3ccc(Cl)cc3)CC2)nn2c(=O)c(Oc3cccc(Br)c3)c[nH]c12 [compound 20, 6-(3-bromophenoxy)-2-[1-(4-chlorophenyl)cyclopropyl]-7-oxo-4H-pyrazolo[1,5-a]pyrimidine-3-carbonitrile]?
EC50 [1]: > 200 µM; EC50 [2]: > 100 µM; EC50 (Sc-Dyn-lyso): 22 ± 5.3 µM; FNorm, GFP-Sc-Dyn (MST) (GFP-Sc-Dyn; 12.5 μM compound, AMPPNP 100 μM): 0.8 ± 2; FNorm, GFP-Sc-Dyn (MST) (GFP-Sc-Dyn; 12.5 μM compound, AMPPNP 1 mM): 1.9 ± 1.2; ΔFNorm, GFP-Sc-Dyn (MST) (GFP-Sc-Dyn; 12.5 μM compound): 3.0 ± 5.0; FNorm, GFP-Sc-Dyn (MST) (GFP-Sc-Dyn; 25 μM compound, AMPPNP 100 μM): 2.4 ± 2.3; FNorm, GFP-Sc-Dyn (MST) (GFP-Sc-Dyn; 25 μM compound, AMPPNP 1 mM): 0.1 ± 1; ΔFNorm, GFP-Sc-Dyn (MST) (GFP-Sc-Dyn; 25 μM compound): 6.7 ± 5.2; ΔFNorm lower than that of the WT control (GFP-Sc-Dyn; 50 μM compound 20, AMPPNP 1 mM): ~ 93%; FNorm, GFP-Sc-Dyn (MST) (GFP-Sc-Dyn; 50 μM compound, AMPPNP 100 μM): 9.3 ± 2.3; FNorm, GFP-Sc-Dyn (MST) (GFP-Sc-Dyn; 50 μM compound, AMPPNP 1 mM): 1.2 ± 2; ΔFNorm, GFP-Sc-Dyn (MST) (GFP-Sc-Dyn; 50 μM compound): 16 ± 2.8; EC50 (GFP-Sc-Dyn; EC50, binding to GFP-Sc-Dyn (MST), mean ± 95% CI, n=9, Figures 5D-E): 70 ± 31 µM; EC50 (GFP-Sc-Dyn; EC50, binding to WT GFP-Sc-Dyn (MST), mean ± 95% CI, n=4, Figure 5N, compared with V2391S/M2732S mutant): 36 ± 7.8 µM; Hill slope, binding to GFP-Sc-Dyn (MST) (GFP-Sc-Dyn; mean ± 95% CI, n=9): 1.7 ± 0.6
